Test results as given in publication PMC4550876, “Discovery of γ-Mangostin as an Amyloidogenesis Inhibitor” (Scientific Reports, 2015).

Key:
[1] = molecular target: T1, V30M tetramer (Homo sapiens, UniProt P02766, V50M); assay: Glutaraldehyde cross-linking assay of quaternary structural stability at acidic pH; format: biochemical; conditions: pH 4.5, 310 K, 10 days, 3.6 μM V30M, compound 5 and 50 μM, SDS-PAGE
T1 construct: made in house
Experimental: The effect of the selected compounds on the quaternary structural stability of V30M at acidic pH was assessed using glutaraldehyde cross-linking followed by SDS-PAGE as previously described.
Glutaraldehyde cross-linking experiments were performed as previously described with some minor modifications. The stock solutions of the selected compounds were prepared in ethanol. Prior to the acid-mediated tetramer dissociation, V30M in solution [20 mM Tris-Cl pH 8.0 and 150 mM NaCl] was incubated with the compounds at room temperature for 30 min. After the incubation period, a 2-fold volume of 0.1 M sodium acetate pH 4.5 was added, and then the sample was incubated at 310 K for 10 days. At this stage, the protein concentration was 3.6 μM, and the compound concentrations were 5 and 50 μM. After the incubation period, 50 μL aliquots of the incubated samples were mixed with 2.5 μL of 25% glutaraldehyde and incubated at room temperature for 4 min, and the reactions were terminated by the addition of 5 μL of sodium borohydrate (7% (w/v) in 0.1 N NaOH). The aliquots were then mixed with SDS sample buffer, boiled and resolved by SDS-PAGE. The protein bands were visualized by silver staining.

[2] = molecular target: T2, V30M mutated TTR (Homo sapiens, UniProt P02766, V50M); assay: Acid-mediated aggregation experiment (thioflavin T assay) of amyloid fibril formation; format: biochemical; conditions: 10 μM V30M; for EC50 / Inhibition ratio at 20 μM / inhibition at 20 µM: pH 4.5, 310 K, 96 h; for EC50: 0–20 μM compound, thioflavin T fluorescence; for Inhibition ratio at 20 μM / inhibition at 20 µM: 20 μM compound; for inhibition at 20 µM: read-out: Inhibition ratio at 20 μM
T2 construct: made in house
Description: V30M mutated TTR (V30M), which is most commonly associated with FAP, was used in this study, along with the following commercially available compounds (Fig. 1 and Table 1): α-mangostin (α-M, 1), 3-isomangostin (2) 9-hydroxycalabaxanthone (3), γ-mangostin (γ-M, 4), gartanin (5), 8-deoxygartanin (6), garcinone C (7), norathyriol (8), 1,3,7-trihydroxy-2-prenylxanthone (9), 3,4,5,6-tetrahydroxyxanthone (10), 1,6,7-trihydroxyxanthone (11) and mangiferin (12). Amyloid fibril formation of V30M was induced by acidic pH and the amount of fibril was quantified using thioflavin T in the presence of 0–20 μM of the compounds. The EC50 values were calculated as previously described.
Thioflavin T assay was performed using V30M in [20 mM Tris-HCl pH 8.0 and 150 mM NaCl] and 10 mM stock solutions (ethanol) of xanthone derivatives. Prior to acid-mediated aggregation, 50 μL of V30M (100 μM) was incubated for 30 min in the presence of xanthone derivatives at room temperature. After the incubation, the pH was decreased to 4.5 by adding 450 μL of 50 mM sodium acetate pH 4.5. The sample was gently vortexed and incubated at 310 K for 96 h. At this time, the concentrations of V30M and the xanthone derivatives were 10 μM and 2.5-20 μM, respectively. The solution was 5.5-fold diluted with 200 mM Tris-HCl buffer (pH 8.0). Thioflavin T assays were performed via the addition of 10 mM thioflavin T to 1.8 μM TTR samples. The final concentration of thioflavin T was 20 μM. Fluorescence emission spectra were obtained with excitation and emission wavelengths of 440 and 484 nm, respectively. The fluorescence of the sample without incubation at pH 4.5 was used as a 100% control, and that of the sample in the absence of xanthone derivatives with incubation at pH 4.5 was used as a 0% control. The amyloid fibril inhibitory ratio (%) = 100 × [1 - (fluorescence at each concentration of xanthone derivatives - 100% control)/(0% control - 100% control)]. Amyloid fibril inhibitory curves were fitted using the 4-parameter logistic model by the least squares methods and at least 3 ligand concentrations were used[30]. EC50 was estimated according to this model.

[3] = molecular target: T3, T4-binding sites of V30M (Homo sapiens, UniProt P02766, V50M); assay: Resveratrol competitive binding assay; conditions: 2 μM TTR, 5 μM resveratrol, excitation 320 nm
T3 construct: made in house
Experimental: (§1) V30M was titrated with various concentrations of γ-M. A previous study has shown that the binding to TTR induces quenching of the intrinsic fluorescence emission from TTR at 336 nm[22]. […] In addition, we performed a competitive binding assay using trans-resveratrol, which is known to bind to the T4-binding sites of TTR. […] For additional evidence, a pull-down assay was carried out using Sepharose 4B beads coupled with γ-M. V30M was detected in the Sepharose 4B-γ-M-coupled beads but not in Sepharose 4B beads alone or in Sepharose 4B beads alone with free γ-M (Fig. 2c).
(§2) The binding of γ-M to TTR was confirmed by an intrinsic emission fluorescence spectrum assay and a resveratrol competitive binding assay. For the intrinsic fluorescence, the spectra (300–400 nm) of 2 μM TTR in [50 mM Tris-HCl pH 7.5 and 150 mM NaCl] were recorded by exciting the protein at 280 nm[22]. […] The spectra were recorded at 0, 0.5, 2, 5 and 20 μM of γ-M. For the resveratrol competitive binding assay, the spectra (350–500 nm) of 2 μM TTR in [50 mM Tris-HCl pH 7.5 and 150 mM NaCl] were recorded by exciting trans-resveratrol at 320 nm[23]. The solutions of resveratrol and γ-M were sequentially added to the protein solution in the same manner as for the intrinsic fluorescence assay.

[4] = molecular target: T4, V30M (Homo sapiens, UniProt P02766, V50M); assay: Intrinsic fluorescence quenching titration; format: binding; conditions: 2 μM TTR, excitation 280 nm, 0–20 μM γ-M
T4 construct: made in house
Experimental: as §1, §2

| Structure (SMILES) | EC50 [2] | inhibition at 20 µM [2] | further results |
| --- | --- | --- | --- |
| COc1c(O)cc2oc3cc(O)c(CC=C(C)C)c(O)c3c(=O)c2c1CC=C(C)C [Compound 1, α-mangostin] | 15 ± 0.75 µM | 61% | tetramer fraction [1]: increased in a dose-dependent manner; Inhibition ratio at 20 μM [2]: 61 ± 4.7% |
| COc1c(O)cc2oc3cc4c(c(O)c3c(=O)c2c1CC=C(C)C)CCC(C)(C)O4 [Compound 2, 3-isomangostin] | > 20 µM | 32% | Inhibition ratio at 20 μM [2]: 32 ± 1.3% |
| COc1c(O)cc2oc3cc4c(c(O)c3c(=O)c2c1CC=C(C)C)C=CC(C)(C)O4 [Compound 3, 9-hydroxycalabaxanthone] | > 20 µM | 29% | Inhibition ratio at 20 μM [2]: 29 ± 1.5% |
| CC(C)=CCc1c(O)cc2oc3cc(O)c(O)c(CC=C(C)C)c3c(=O)c2c1O [Compound 4, γ-mangostin] | 7 ± 0.6 µM | 97 ± 1.3% | fluorescence intensity of resveratrol bound to V30M on addition of compound [3]: significantly decreased; tetramer fraction [1]: increased in a dose-dependent manner; quenching of the intrinsic fluorescence emission from V30M [4]: induced similar quenching |
| CC(C)=CCc1c(O)c(CC=C(C)C)c2oc3c(O)ccc(O)c3c(=O)c2c1O [Compound 5, gartanin] | > 20 µM | 30 ± 0.79% | – |
| CC(C)=CCc1c(O)c(CC=C(C)C)c2oc3c(O)cccc3c(=O)c2c1O [Compound 6, 8-deoxygartanin] | – | – | inhibitory ability against amyloid fibril formation ([2]; up to 20 μM compound): did not exhibit the inhibitory ability |
| CC(C)=CCc1c(O)cc2oc3cc(O)c(O)c(CCC(C)(C)O)c3c(=O)c2c1O [Compound 7, garcinone C] | 10 ± 0.3 µM | 83 ± 0.23% | – |
| O=c1c2cc(O)c(O)cc2oc2cc(O)cc(O)c12 [Compound 8, norathyriol] | 9.7 ± 0.48 µM | 79 ± 0.49% | – |
| CC(C)=CCc1c(O)cc2oc3ccc(O)cc3c(=O)c2c1O [Compound 9, 1,3,7-trihydroxy-2-prenylxanthone] | 13 ± 1.1 µM | 67 ± 2.7% | – |
| O=c1c2ccc(O)c(O)c2oc2c(O)c(O)ccc12 [Compound 10, 3,4,5,6-tetrahydroxyxanthone] | > 20 µM | 25 ± 0.97% | – |
| O=c1c2cc(O)c(O)cc2oc2cccc(O)c12 [Compound 11, 1,6,7-trihydroxyxanthone] | 14 ± 0.51 µM | 64 ± 1.2% | – |
| O=c1c2cc(O)c(O)cc2oc2cc(O)c([C@@H]3O[C@H](CO)[C@@H](O)[C@H](O)[C@H]3O)c(O)c12 [Compound 12, mangiferin] | > 20 µM | 8.5 ± 2.1% | – |
| O=C(O)c1cc(-c2ccc(F)cc2F)ccc1O [diflunisal, reference compound] | – | 97 ± 1.7% | – |
